Drawing on PMC4485020 (The Journal of General Physiology, 2015), this text covers EC50 for one compound.

The term EC50 denotes the concentration at which the effect is half-maximal.

This assay deals with hTRPM3 (transient receptor potential melastatin 3) (Homo sapiens, UniProt Q9HCF6). Format: cell-based.

Each structure is given as a SMILES string.

hTRPM3 (transient receptor potential melastatin 3), sequence (Q9HCF6 whole entry): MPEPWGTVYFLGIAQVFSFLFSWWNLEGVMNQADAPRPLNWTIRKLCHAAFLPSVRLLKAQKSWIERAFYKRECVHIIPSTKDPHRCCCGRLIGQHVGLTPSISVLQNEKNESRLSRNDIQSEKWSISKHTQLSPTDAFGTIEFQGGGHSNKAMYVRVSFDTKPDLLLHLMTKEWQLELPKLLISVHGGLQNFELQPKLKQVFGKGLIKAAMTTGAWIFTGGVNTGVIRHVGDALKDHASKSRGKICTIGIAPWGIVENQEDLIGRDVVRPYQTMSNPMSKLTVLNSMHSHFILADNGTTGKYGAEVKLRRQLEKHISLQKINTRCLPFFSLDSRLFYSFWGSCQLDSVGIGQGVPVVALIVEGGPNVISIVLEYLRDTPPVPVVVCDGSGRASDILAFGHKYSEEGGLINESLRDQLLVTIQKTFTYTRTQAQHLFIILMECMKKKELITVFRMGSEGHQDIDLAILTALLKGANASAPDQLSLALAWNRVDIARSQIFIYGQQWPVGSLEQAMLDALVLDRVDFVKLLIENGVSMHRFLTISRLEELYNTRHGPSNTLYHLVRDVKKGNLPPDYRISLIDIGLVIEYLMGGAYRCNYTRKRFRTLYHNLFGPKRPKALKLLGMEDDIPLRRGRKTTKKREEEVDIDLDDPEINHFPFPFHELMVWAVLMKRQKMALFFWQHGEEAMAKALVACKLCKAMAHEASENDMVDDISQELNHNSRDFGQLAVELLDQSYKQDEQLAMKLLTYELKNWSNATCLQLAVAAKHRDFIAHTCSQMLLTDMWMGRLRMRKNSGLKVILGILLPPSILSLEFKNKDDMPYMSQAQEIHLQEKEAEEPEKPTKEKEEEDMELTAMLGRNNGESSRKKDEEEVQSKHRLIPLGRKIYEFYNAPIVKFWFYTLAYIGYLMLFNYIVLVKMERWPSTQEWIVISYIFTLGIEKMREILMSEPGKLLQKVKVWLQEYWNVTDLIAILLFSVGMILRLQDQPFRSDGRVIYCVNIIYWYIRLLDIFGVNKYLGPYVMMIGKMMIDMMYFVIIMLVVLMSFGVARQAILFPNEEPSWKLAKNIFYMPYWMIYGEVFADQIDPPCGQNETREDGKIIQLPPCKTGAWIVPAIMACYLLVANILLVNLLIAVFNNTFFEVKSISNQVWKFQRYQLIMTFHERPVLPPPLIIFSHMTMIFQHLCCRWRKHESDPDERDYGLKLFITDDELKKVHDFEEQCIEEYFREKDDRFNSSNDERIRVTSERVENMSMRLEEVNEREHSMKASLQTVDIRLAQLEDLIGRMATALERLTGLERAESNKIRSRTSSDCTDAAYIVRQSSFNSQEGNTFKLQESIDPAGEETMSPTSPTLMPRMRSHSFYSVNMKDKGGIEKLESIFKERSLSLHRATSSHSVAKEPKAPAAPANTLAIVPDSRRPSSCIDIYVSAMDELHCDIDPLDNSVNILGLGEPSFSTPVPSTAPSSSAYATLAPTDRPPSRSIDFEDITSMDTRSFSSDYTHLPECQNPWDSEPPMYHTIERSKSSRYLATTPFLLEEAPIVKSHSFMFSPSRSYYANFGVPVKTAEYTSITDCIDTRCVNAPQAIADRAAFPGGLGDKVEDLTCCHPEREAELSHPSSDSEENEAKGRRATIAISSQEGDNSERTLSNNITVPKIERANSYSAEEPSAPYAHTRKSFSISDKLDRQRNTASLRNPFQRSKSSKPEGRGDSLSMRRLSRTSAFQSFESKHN

Regarding `CCCCCCCC(=O)OC[C@H](COP(=O)(O)O[C@@H]1[C@H](O)[C@H](O)[C@@H](OP(=O)(O)O)[C@H](OP(=O)(O)O)[C@H]1O)OC(=O)CCCCCCC` [diC8 PI(4,5)P2], the EC50 is 18 µM.
